Values quoted from earlier work in publication PMC11258486, “Phase 1 dose escalation study of the MDM2 inhibitor milademetan as monotherapy and in combination with azacitidine in patients with myeloid malignancies” (Cancer Medicine, 2024).

Tests used:
relapsed/refractory AML = system: relapsed/refractory AML; set-up: method as in PMID 35413116; conditions: relapsed/refractory AML and wild‐type p53; cited from earlier work
AML = system: AML; set-up: method as in PMID 26459177; conditions: phase 1 clinical study in AML; cited from earlier work

Row | SMILES | overall response rate (relapsed/refractory AML) [%] | response rate (AML)
1 | Nc1ccn([C@@H]2O[C@H](CO)[C@@H](O)[C@@H]2O)c(=O)n1 [cytarabine] | 22 | 
2 | CCOc1cc(C(C)(C)C)ccc1C1=N[C@@](C)(c2ccc(Cl)cc2)[C@@](C)(c2ccc(Cl)cc2)N1C(=O)N1CCN(CCCS(C)(=O)=O)CC1 [RG7112] |  | ~ 25%
